Here are results for ten compounds from ChEMBL document CHEMBL5465560, “Selectivity Literature for EUbOPEN Chemogenomic Library” (2024).

SMILES strings stand for the structures.

Assay [1] concerns the target Calcium/calmodulin-dependent protein kinase type II subunit alpha (Homo sapiens, UniProt Q9UQM7). Kind of assay: Selectivity interaction (KinomeScan (DiscoverX)) EUB0000607a CAMK2A. Particulars: at 10 µM.
For assay [2], the target named is Tyrosine-protein kinase Lck (Homo sapiens, UniProt P06239). Kind of assay: Selectivity interaction (KinomeScan (DiscoverX)) EUB0000607a LCK. Particulars: at 10 µM.
Tyrosine-protein kinase Lck, sequence (P06239 2-509 limits assumed): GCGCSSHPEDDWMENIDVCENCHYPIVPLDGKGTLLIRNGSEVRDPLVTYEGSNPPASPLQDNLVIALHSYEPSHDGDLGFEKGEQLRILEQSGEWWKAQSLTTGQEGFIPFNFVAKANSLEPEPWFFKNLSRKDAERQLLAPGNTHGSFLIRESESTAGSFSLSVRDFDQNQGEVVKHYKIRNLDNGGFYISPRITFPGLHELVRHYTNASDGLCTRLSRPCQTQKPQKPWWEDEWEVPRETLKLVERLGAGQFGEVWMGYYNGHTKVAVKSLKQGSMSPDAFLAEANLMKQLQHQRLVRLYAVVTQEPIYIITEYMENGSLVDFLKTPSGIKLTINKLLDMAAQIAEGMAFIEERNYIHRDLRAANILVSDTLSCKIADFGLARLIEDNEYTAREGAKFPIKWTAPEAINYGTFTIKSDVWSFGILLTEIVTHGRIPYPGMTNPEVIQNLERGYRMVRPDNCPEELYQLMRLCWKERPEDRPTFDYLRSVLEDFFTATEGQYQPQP
For assay [3], the target named is Cyclin-dependent kinase 15 (Homo sapiens) (UniProt Q96Q40). Kind of assay: Selectivity interaction (KinomeScan (DiscoverX)) EUB0000229b CDK15. The following applies: at 10 µM.
Assay [4] has as its target Mitogen-activated protein kinase kinase kinase kinase 4 (Homo sapiens, UniProt O95819). Kind of assay: Selectivity interaction (KinomeScan (DiscoverX)) EUB0000229b MAP4K4. The following applies: at 10 µM.
For assay [5], the target named is T1, Dual specificity mitogen-activated protein kinase kinase 7 (Homo sapiens) (UniProt O14733).
T1 sequence (whole entry): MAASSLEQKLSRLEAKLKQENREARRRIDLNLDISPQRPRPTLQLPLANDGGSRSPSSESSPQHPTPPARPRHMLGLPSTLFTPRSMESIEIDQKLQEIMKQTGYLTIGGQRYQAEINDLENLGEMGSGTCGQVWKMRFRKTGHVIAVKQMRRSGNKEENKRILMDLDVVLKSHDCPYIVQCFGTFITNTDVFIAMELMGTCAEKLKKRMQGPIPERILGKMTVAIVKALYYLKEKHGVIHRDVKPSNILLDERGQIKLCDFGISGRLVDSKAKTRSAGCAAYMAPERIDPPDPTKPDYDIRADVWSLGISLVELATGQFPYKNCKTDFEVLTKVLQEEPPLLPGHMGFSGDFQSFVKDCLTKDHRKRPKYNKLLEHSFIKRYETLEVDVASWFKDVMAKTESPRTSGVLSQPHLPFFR
Kind of assay: Selectivity interaction (KinomeScan (DiscoverX)) EUB0000655a MAP2K7. The following applies: at 10 µM.

Assay [6] concerns the target Ribosomal protein S6 kinase alpha-2 (Homo sapiens) (UniProt Q15349). Kind of assay: Selectivity interaction (ActivX KiNativ screen (ex vivo kinase selectivity in human PBMCs)) EUB0001619a RPS6KA2. Type of assay: cell-based. The following applies: PBMC, at 1 µM.
For assay [7], the target named is STE20-like serine/threonine-protein kinase (Homo sapiens, UniProt Q9H2G2). Kind of assay: Selectivity interaction (ActivX KiNativ screen (kinase selectivity in THP-1 cell lysates)) EUB0000639a SLK. The assay is classed as subcellular. The following applies: lysate, at 5 µM.
The target in assay [8] is Tyrosine-protein kinase Fes/Fps (Homo sapiens) (UniProt P07332). Particulars: at 10 µM.
Tyrosine-protein kinase Fes/Fps (Homo sapiens), sequence (P07332 whole entry): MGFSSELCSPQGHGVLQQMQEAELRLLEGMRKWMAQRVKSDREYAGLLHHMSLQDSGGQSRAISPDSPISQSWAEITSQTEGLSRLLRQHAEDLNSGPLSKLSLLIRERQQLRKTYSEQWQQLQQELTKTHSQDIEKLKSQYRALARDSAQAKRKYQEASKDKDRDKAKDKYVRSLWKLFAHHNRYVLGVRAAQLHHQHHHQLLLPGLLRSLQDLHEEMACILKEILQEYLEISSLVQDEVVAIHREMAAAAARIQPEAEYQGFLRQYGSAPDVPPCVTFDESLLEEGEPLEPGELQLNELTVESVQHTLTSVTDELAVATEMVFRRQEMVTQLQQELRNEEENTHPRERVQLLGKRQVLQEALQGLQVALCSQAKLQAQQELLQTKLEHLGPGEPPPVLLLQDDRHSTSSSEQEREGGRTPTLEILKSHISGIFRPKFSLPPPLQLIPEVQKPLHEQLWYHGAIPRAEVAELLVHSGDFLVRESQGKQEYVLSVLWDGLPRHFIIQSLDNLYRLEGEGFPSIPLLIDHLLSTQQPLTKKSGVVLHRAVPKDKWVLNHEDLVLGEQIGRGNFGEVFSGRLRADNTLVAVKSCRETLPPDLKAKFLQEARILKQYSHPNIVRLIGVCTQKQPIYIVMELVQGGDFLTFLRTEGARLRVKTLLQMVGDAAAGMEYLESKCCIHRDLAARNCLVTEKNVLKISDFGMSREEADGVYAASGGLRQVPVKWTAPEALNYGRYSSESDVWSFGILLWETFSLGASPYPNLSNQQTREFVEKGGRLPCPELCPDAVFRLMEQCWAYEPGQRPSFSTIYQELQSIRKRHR
The target in assay [9] is Serine/threonine-protein kinase Nek4 (Homo sapiens) (UniProt P51957). Kind of assay: Selectivity interaction (KinomeScan (DiscoverX)) EUB0000695a NEK4. Particulars: at 100 nM.
Serine/threonine-protein kinase Nek4 (Homo sapiens), sequence (P51957 whole entry, looked up): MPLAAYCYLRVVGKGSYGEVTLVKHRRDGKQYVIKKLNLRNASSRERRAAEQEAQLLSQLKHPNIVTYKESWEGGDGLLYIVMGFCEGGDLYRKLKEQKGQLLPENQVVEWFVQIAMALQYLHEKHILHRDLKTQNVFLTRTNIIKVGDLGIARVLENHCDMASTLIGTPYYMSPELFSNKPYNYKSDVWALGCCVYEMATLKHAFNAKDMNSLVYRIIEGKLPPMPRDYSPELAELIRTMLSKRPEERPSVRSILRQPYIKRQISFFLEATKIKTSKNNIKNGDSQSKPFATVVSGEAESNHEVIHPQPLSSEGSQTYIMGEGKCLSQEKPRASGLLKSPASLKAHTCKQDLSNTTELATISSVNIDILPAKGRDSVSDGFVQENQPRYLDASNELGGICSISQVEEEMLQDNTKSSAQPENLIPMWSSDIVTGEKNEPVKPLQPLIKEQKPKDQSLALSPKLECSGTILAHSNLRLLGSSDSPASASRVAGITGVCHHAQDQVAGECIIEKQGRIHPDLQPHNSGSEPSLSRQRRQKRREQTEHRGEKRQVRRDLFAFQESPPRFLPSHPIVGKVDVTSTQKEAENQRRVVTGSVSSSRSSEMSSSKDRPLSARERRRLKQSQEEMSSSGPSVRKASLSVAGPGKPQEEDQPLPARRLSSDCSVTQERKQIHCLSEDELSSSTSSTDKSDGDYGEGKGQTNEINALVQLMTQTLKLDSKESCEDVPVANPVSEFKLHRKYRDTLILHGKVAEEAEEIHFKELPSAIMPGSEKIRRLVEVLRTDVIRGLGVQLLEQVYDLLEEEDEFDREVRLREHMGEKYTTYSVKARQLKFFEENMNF
The target in assay [10] is T2, Tyrosine-protein kinase Mer (Homo sapiens) (UniProt Q12866).
T2 sequence (whole entry): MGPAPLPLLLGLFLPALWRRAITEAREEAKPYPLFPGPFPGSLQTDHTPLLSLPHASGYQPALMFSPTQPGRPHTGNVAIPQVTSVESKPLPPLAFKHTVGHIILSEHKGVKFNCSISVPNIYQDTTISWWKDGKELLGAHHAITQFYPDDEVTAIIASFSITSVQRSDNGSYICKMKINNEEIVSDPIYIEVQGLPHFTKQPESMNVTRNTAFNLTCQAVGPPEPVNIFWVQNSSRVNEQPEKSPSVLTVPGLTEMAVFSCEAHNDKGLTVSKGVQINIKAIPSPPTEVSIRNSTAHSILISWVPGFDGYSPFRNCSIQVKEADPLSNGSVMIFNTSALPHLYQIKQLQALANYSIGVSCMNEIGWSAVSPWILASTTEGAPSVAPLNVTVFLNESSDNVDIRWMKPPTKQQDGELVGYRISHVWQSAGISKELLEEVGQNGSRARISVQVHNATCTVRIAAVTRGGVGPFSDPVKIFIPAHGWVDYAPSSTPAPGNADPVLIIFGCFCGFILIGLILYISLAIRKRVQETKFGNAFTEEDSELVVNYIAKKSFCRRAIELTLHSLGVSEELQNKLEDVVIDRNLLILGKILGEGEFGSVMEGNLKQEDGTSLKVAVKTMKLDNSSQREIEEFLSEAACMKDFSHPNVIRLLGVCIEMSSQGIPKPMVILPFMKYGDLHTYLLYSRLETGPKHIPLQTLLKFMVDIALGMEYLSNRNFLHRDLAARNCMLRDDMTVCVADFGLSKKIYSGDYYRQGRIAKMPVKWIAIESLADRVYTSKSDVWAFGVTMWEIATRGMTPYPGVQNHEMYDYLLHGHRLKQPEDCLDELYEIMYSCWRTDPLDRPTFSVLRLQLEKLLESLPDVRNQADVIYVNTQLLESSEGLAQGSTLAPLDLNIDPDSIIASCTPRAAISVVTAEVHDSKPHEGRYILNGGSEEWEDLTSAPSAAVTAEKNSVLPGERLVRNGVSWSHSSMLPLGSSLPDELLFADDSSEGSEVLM
Kind of assay: Selectivity interaction (ProQinase) EUB0000171b MERTK.

The target of assay [11] is Serine/threonine-protein kinase 38-like (Homo sapiens) (UniProt Q9Y2H1). Kind of assay: Selectivity interaction (Kinase panel (DSF assay)) EUB0001559a STK38L.
Serine/threonine-protein kinase 38-like (Homo sapiens), sequence (Q9Y2H1 2-464 limits assumed): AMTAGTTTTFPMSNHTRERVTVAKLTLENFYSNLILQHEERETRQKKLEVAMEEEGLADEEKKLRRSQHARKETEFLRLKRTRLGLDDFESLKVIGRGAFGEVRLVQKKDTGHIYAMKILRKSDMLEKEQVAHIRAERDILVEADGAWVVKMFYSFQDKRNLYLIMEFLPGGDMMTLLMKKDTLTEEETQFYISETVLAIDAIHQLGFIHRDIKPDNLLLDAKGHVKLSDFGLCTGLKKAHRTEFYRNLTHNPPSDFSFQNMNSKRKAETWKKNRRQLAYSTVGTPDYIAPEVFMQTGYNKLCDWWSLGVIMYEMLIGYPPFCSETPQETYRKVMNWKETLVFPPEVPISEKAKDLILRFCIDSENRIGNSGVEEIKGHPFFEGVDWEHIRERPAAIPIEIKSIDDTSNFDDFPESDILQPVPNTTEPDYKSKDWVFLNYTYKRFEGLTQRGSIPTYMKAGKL
The subject of assay [12] is Tyrosine-protein kinase ABL1 (Homo sapiens), P00519 [F317I]. Kind of assay: Selectivity interaction (KinomeScan (DiscoverX)) EUB0000045b ABL1. The following applies: at 1 µM.

Mitogen-activated protein kinase kinase kinase kinase 4, sequence (O95819 2-1239 limits assumed): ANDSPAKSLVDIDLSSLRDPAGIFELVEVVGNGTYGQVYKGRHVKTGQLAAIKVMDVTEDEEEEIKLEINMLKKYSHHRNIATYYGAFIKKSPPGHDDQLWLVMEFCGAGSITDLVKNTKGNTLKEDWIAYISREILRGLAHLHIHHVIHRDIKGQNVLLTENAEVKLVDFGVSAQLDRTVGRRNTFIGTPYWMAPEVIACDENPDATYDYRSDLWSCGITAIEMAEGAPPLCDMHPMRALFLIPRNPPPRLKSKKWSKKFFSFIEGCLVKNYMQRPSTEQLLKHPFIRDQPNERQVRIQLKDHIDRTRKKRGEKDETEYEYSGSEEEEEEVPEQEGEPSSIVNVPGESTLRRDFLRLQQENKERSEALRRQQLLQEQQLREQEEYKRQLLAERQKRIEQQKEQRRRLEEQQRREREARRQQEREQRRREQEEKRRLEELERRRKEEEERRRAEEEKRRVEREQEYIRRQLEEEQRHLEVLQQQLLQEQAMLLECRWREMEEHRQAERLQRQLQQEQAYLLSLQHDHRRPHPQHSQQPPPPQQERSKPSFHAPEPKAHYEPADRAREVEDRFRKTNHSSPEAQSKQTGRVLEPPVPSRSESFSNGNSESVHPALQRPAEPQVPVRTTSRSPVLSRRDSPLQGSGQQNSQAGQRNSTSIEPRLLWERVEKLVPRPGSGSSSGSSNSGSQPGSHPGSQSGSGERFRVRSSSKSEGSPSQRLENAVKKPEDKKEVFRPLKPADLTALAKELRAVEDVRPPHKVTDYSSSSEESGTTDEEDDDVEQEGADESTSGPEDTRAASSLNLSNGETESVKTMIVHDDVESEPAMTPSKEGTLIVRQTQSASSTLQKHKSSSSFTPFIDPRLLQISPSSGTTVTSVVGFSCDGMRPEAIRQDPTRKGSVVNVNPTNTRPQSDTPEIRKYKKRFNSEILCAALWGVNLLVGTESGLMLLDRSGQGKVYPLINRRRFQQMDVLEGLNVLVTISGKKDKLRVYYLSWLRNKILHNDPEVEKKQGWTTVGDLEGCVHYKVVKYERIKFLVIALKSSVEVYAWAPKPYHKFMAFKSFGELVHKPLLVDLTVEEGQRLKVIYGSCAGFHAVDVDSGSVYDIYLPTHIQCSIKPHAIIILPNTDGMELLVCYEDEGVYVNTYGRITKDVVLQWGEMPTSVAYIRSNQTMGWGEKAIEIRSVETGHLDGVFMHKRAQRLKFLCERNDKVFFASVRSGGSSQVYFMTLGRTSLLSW
Tyrosine-protein kinase ABL1 (Homo sapiens), P00519 [F317I], sequence (P00519 whole entry F317I): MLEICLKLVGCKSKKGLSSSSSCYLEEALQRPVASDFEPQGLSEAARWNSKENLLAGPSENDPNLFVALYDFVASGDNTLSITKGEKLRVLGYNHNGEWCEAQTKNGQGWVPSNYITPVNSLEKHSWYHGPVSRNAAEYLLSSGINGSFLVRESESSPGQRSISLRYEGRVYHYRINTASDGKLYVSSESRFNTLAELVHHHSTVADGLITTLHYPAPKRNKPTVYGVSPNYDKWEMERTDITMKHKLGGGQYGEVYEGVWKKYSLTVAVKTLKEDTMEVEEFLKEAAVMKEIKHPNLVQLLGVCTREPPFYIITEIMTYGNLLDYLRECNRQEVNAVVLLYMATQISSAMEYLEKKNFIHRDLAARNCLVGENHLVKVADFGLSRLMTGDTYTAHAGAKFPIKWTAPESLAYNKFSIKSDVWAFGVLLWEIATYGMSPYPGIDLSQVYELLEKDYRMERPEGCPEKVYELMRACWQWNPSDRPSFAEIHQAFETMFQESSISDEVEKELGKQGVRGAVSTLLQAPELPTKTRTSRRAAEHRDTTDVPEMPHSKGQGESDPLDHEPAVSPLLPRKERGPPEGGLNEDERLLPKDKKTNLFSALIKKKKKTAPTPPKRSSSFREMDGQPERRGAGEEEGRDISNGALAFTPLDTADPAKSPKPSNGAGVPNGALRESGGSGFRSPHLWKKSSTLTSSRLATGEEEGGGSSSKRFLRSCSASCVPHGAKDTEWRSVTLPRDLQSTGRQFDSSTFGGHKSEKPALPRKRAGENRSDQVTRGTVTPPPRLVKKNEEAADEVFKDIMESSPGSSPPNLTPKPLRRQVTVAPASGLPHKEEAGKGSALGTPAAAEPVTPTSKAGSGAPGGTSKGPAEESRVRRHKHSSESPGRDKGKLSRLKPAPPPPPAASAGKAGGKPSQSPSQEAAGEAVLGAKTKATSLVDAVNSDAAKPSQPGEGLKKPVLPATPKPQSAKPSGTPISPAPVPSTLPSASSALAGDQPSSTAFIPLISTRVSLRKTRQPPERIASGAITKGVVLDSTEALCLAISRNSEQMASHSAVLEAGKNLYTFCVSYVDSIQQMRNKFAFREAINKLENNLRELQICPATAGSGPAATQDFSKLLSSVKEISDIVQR

Regarding `CNC(=O)Nc1ccc(-c2nc(N3CC4CCC(C3)O4)c3cnn(C4CCC5(CC4)OCCO5)c3n2)cc1`, the % of control in assay [1] and in [2] was 100% throughout.
Consider `COc1cc(N(C)c2ccnc3ccc(C(F)(F)F)cc23)cc(OC)c1OC`, for which the % binding was found to be 85% in assay [3] and 86% in [4].
Compound `CN(C)CCOc1ccc(-c2nc(-c3ccncc3)c(-c3ccc4c(c3)CC/C4=N\O)[nH]2)cc1` registered a % of control in assay [5] of 94%.
As for `N#Cc1cccc(-c2c[nH]c3ncnc(N4CCOCC4)c23)c1`, the % of inhibition in [6] was found to be 13%.
For the compound `CC[C@@H]1[C@H](F)C(=O)N[C@@H]1COc1nccc2cc(C(N)=O)c(OC)cc12` [ZIMLOVISERTIB], the % of inhibition in assay [7] is -0.8%.
Turning to `CCN(CC)CCCCNc1ncc2cc(-c3cc(OC)cc(OC)c3)c(NC(=O)NC(C)(C)C)nc2n1`, the % of control in assay [8] came to 100%.
`Cc1cc(F)c(C(=O)Nc2cccc(-c3nncn3C(C)C)n2)cc1-n1cnc(C2CC2)c1` registered a % of control in assay [9] of 100%.
On to `C=CC(=O)Nc1cccc(C(=O)Nc2ccc(Nc3cc(-c4[nH]c(SC)nc4C)ccn3)cc2)c1`, for which the figures for the % of control in assay [10] (at 1 µM) and in assay [10] (at 5 µM) were 76% and 41%, respectively.
`CN(C(=O)c1cnn2cccnc12)c1cc2c(cc1N1CCOCC1)C(=O)N(C[C@@H](F)C(C)(C)O)C2` had a dTM in assay [11] of 0 K.
Take `C=CC(=O)Nc1cc(-n2c(=O)ccc3cnc4ccc(-c5ccc(NS(C)(=O)=O)cc5)cc4c32)ccc1C`: the % of control in [12] was found to be 81%.
